Test system: C28/I2 cells
Assay: Protein and mRNA expression in C28/I2 chondrocyte cells
Assay type: cell-based, human
Excerpt: Cell culture and reagents. The mouse chondrogenic cell line, ATDC5, was obtained from the RIKEN Cell Batik. The human juvenile costal chondrocyte cell line, C28/I2, was provided by Dr. W. U. Kim (Catholic University, Korea). HEK293-TOP cells (HEK293 cells containing the chromosomally incorporated TOPFlash gene) were provided by Dr. S. Oh (Kuk Min University, Korea). ATDCS cells were maintained in DMEM/F12 (1:1) (Gibco, Grand Island, N.Y.) supplemented with 5% FBS (Gibco). To induce hypertrophic differentiation, ATDC5 cells were incubated with insulin-transferrin-sodium selenite (ITS) supplement (Gibco) in three-dimensional alginate beads for 3 days, as previously described. See e.g., Kawasaki Y. et al. (2008), Phosphorylation of GSK-3beta by cGMP-dependent protein kinase II promotes hypertrophic differentiation of murine chondrocytes. J CLIN INVEST 118: 2506-2515. C28/I2 and HEK293-TOP cells were maintained in DMEM (Gibco) containing 10% FBS. All chemicals were dissolved in dimethyl sulfoxide (DMSO; Sigma-Aldrich, St Louis, Mo.) for the in vitro studies. For E2 (17β-estradiol; Sigma-Aldrich) treatment, cells were cultured in phenol red-free DMEM/F12 with 5% charcoal-stripped FBS for 24 hours followed by serum-free medium for 24 hours before the experiment. The PTD-DBMP was synthesized by Peptide 2.0 Inc (Chantilly, Va.).
Immunocytochemistry. ATDCS or C28/I2 cells were seeded on glass coverslip in 12-well culture plates. The cells were washed with PBS and fixed with 4% PFA at room temperature for 15 minutes. After permeabilization with 0.1% triton-X-100 for 15 minutes and blocking with 5% BSA for 1 hour, the cells were incubated with primary antibodies specific for β-catenin (1:100) or CXXC5 l (1:200) at 4° C. overnight. […]
Immunoblot analyses. […] Immunoblot bands were analyzed using Multi-Gauge V3.0 software (Fujifilm). Points of interest (POIs) from immunoblot bands were marked and quantified using densitometry, and the background signals were subtracted from respective immunoblot signals. […]
Reverse transcription and quantitative real-time PCR. […]

Compound | expression of CXXC5 (100 nM, 0-72 hours, FIG. 2A) | β-catenin level (100 nM, following 24 hours) | mRNA levels of chondrogenic markers (1 μM, 3 days, alginate beads, FIG. 11C)
17β-estradiol [Compound E2] | induced expression of CXXC5 in a time-dependent manner | reduced | 
CO/N=C1/C(=C2/C(=O)Nc3cc(Cl)c(Cl)cc32)Nc2ccccc21 [KY19382, 5,6-dichloroindirubin-3′-methoxime] |  |  | upregulated

— patent publication US20210323918A1, “COMPOSITIONS AND METHODS FOR SUPPRESSING AND/OR TREATING A GROWTH RELATED DISEASE AND/OR A CLINICAL CONDITION THEREOF” (CK Biotech Inc., priority 2018, published 2021)
